Values quoted from earlier work as cited in patent publication US20080187585A1, “Prolonged-Release Compositions Comprising Torasemide and a Matrix-Forming Polymer” (FERRER INTERNACIONAL S.A., priority 2004, published 2008).

Assays:
[1] = not given; remark: listed apart in the source

bioavailability ([1]; after oral administration): 80-90%
kinetics ([1]; oral administration): linear
elimination half-life (t1/2) ([1]; oral administration, man): 3 to 4 h
tmax (time to maximum plasma concentration) ([1]; oral administration, man): approximately 1 hour
SMILES: Cc1cccc(Nc2ccncc2S(=O)(=O)NC(=O)NC(C)C)c1 [torasemide, Torasemide]
time of maximal effects on urine and electrolytes excretions (after oral administration): approximately 2 hours
dose-response relationship for urinary volume (doses from 2.5 to 20 mg): linear dose-response relationship
